Reference: PubChem BioAssay (NCI)
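Compound exposure: 48 hours, 5 concentrations, 96-well plates. GI50 is the concentration that inhibits growth by half. TGI: total growth inhibition.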

Columns and labels:
Assay in all cases: NCI-60 cell line screen, 48 h
HCC-2998 colon = tested on: HCC-2998 colon
HOP-92 NSCLC = tested on: HOP-92 NSCLC
KM12 colon = tested on: KM12 colon
SF-268 CNS = tested on: SF-268 CNS
SF-295 CNS = tested on: SF-295 CNS
UO-31 renal = tested on: UO-31 renal
HOP-62 NSCLC = tested on: HOP-62 NSCLC
LOX IMVI melanoma = tested on: LOX IMVI melanoma
SK-OV-3 ovarian = tested on: SK-OV-3 ovarian
SNB-75 CNS = tested on: SNB-75 CNS

**Q.** `CCOP(=O)(OCC)C(NC(c1ccccc1)c1ccccc1)c1cccc2ccccc12` (stereo not given) was tested. Which GI50 (HCC-2998 colon) did it give?
**A.** 4.55 µM

**Q.** What about the TGI (HCC-2998 colon) of the same compound?
**A.** 17.2 µM

**Q.** And the GI50 (HOP-92 NSCLC)?
**A.** 11.7 µM

**Q.** And the TGI (HOP-92 NSCLC)?
**A.** 28.4 µM

**Q.** And the GI50 (KM12 colon)?
**A.** 5.32 µM

**Q.** What about the TGI (KM12 colon) of the same compound?
**A.** 23 µM

**Q.** And the GI50 (SF-268 CNS)?
**A.** 5.75 µM

**Q.** What about the TGI (SF-268 CNS) of the same compound?
**A.** 21.2 µM

**Q.** And the GI50 (SF-295 CNS)?
**A.** 6.76 µM

**Q.** What about the TGI (SF-295 CNS) of the same compound?
**A.** 65.7 µM

**Q.** What about the GI50 (UO-31 renal) of the same compound?
**A.** 12.3 µM

**Q.** And the TGI (UO-31 renal)?
**A.** > 100 µM

**Q.** For `COc1cc(/C=C/C(=O)c2sc(Nc3ccccc3)nc2C)ccc1O`, which TGI (HCC-2998 colon) is on record?
**A.** > 100 µM

**Q.** And the TGI (HOP-62 NSCLC)?
**A.** > 100 µM

**Q.** And the TGI (HOP-92 NSCLC)?
**A.** > 100 µM

**Q.** What about the TGI (KM12 colon) of the same compound?
**A.** > 100 µM

**Q.** And the TGI (LOX IMVI melanoma)?
**A.** > 100 µM

**Q.** And the TGI (SF-268 CNS)?
**A.** > 100 µM

**Q.** And the TGI (SF-295 CNS)?
**A.** > 100 µM

**Q.** And the TGI (SK-OV-3 ovarian)?
**A.** > 100 µM

**Q.** And the TGI (SNB-75 CNS)?
**A.** 84.8 µM

**Q.** What about the TGI (UO-31 renal) of the same compound?
**A.** > 100 µM

**Q.** Which TGI (HCC-2998 colon) does the source give for `CCCCCCCCCCCCCCCC(=O)OCC1OC(n2c(O)c(N=NC(N)=S)c3ccc([N+](=O)[O-])cc32)C(OC(C)=O)C1OC(C)=O` (stereo not given) here?
**A.** > 100 µM

**Q.** What about the TGI (HOP-62 NSCLC) of the same compound?
**A.** > 100 µM

**Q.** And the TGI (HOP-92 NSCLC)?
**A.** > 100 µM

**Q.** What about the TGI (KM12 colon) of the same compound?
**A.** > 100 µM

**Q.** What about the TGI (LOX IMVI melanoma) of the same compound?
**A.** > 100 µM

**Q.** And the TGI (SF-268 CNS)?
**A.** > 100 µM

**Q.** What about the TGI (SF-295 CNS) of the same compound?
**A.** > 100 µM

**Q.** What about the TGI (SK-OV-3 ovarian) of the same compound?
**A.** > 100 µM

**Q.** What about the TGI (SNB-75 CNS) of the same compound?
**A.** > 100 µM

**Q.** With `COc1ccc(-c2cncn2-c2ccc(OC)cc2)cc1` as the compound, how does the GI50 (HCC-2998 colon) read?
**A.** 16.7 µM

**Q.** What about the TGI (HCC-2998 colon) of the same compound?
**A.** 32.2 µM

**Q.** What about the GI50 (HOP-62 NSCLC) of the same compound?
**A.** 22.8 µM

**Q.** And the TGI (HOP-62 NSCLC)?
**A.** 67.4 µM

**Q.** And the GI50 (HOP-92 NSCLC)?
**A.** 23 µM

**Q.** What about the TGI (HOP-92 NSCLC) of the same compound?
**A.** 84.8 µM

**Q.** What about the GI50 (KM12 colon) of the same compound?
**A.** 10.2 µM

**Q.** What about the TGI (KM12 colon) of the same compound?
**A.** 29 µM

**Q.** What about the GI50 (LOX IMVI melanoma) of the same compound?
**A.** 29.6 µM

**Q.** What about the TGI (LOX IMVI melanoma) of the same compound?
**A.** > 100 µM

**Q.** What about the GI50 (SF-268 CNS) of the same compound?
**A.** 21.7 µM

**Q.** What about the TGI (SF-268 CNS) of the same compound?
**A.** 66.2 µM

**Q.** What about the GI50 (SF-295 CNS) of the same compound?
**A.** 12.7 µM

**Q.** And the TGI (SF-295 CNS)?
**A.** 47 µM

**Q.** What about the GI50 (UO-31 renal) of the same compound?
**A.** 17.2 µM

**Q.** And the TGI (UO-31 renal)?
**A.** 53.6 µM

**Q.** For `O=C(O)c1cc(=O)c2[nH]c3ccccc3c2s1`, which TGI (HCC-2998 colon) is on record?
**A.** > 100 µM

**Q.** What about the TGI (HOP-62 NSCLC) of the same compound?
**A.** > 100 µM

**Q.** What about the TGI (HOP-92 NSCLC) of the same compound?
**A.** > 100 µM

**Q.** What about the TGI (KM12 colon) of the same compound?
**A.** > 100 µM

**Q.** And the TGI (SF-268 CNS)?
**A.** > 100 µM

**Q.** And the TGI (SF-295 CNS)?
**A.** > 100 µM

**Q.** What about the TGI (SK-OV-3 ovarian) of the same compound?
**A.** > 100 µM

**Q.** And the TGI (SNB-75 CNS)?
**A.** > 100 µM

**Q.** What about the TGI (UO-31 renal) of the same compound?
**A.** > 100 µM

**Q.** What does the source list for `COc1cc(CNc2ccc(C(C)C)cc2)cc(OC)c1OC`?
**A.** TGI (HOP-62 NSCLC): 55.1 µM; TGI (HOP-92 NSCLC): 50.2 µM; TGI (KM12 colon): 34.9 µM; TGI (LOX IMVI melanoma): 29.9 µM; TGI (SF-268 CNS): > 100 µM; TGI (SK-OV-3 ovarian): 46.2 µM; TGI (SNB-75 CNS): 70.5 µM; TGI (UO-31 renal): 45.3 µM

**Q.** With `COc1ccc(O)c(C#N)c1C#N` as the compound, how does the TGI (HCC-2998 colon) read?
**A.** > 100 µM

**Q.** What about the TGI (HOP-62 NSCLC) of the same compound?
**A.** > 100 µM

**Q.** And the TGI (KM12 colon)?
**A.** > 100 µM

**Q.** And the TGI (LOX IMVI melanoma)?
**A.** > 100 µM

**Q.** What about the TGI (SF-268 CNS) of the same compound?
**A.** > 100 µM

**Q.** And the TGI (SF-295 CNS)?
**A.** > 100 µM

**Q.** And the TGI (SK-OV-3 ovarian)?
**A.** > 100 µM

**Q.** And the TGI (SNB-75 CNS)?
**A.** > 100 µM

**Q.** And the TGI (UO-31 renal)?
**A.** > 100 µM

**Q.** `Cc1ccc(NC(=O)/C(=N\Nc2ccc([N+](=O)[O-])cc2[N+](=O)[O-])C2C(=O)NC(=O)NC2=O)cc1` was tested. Which TGI (HOP-62 NSCLC) did it give?
**A.** > 100 µM

**Q.** And the TGI (HOP-92 NSCLC)?
**A.** > 100 µM

**Q.** What about the TGI (KM12 colon) of the same compound?
**A.** > 100 µM

**Q.** And the TGI (LOX IMVI melanoma)?
**A.** > 100 µM

**Q.** What about the TGI (SF-268 CNS) of the same compound?
**A.** > 100 µM

**Q.** What about the TGI (SF-295 CNS) of the same compound?
**A.** > 100 µM

**Q.** And the TGI (SK-OV-3 ovarian)?
**A.** > 100 µM

**Q.** And the TGI (SNB-75 CNS)?
**A.** > 100 µM

**Q.** What about the TGI (UO-31 renal) of the same compound?
**A.** > 100 µM

**Q.** `COc1c(N2CCN(CN3C(=O)C(=Nc4ccc(S(=O)(=O)Nc5ncccn5)cc4)c4ccccc43)C(C)C2)c(F)cc2c(=O)c(C(=O)O)cn(C3CC3)c12` (stereo not given) was tested. Which GI50 (KM12 colon) did it give?
**A.** 40.8 µM

**Q.** And the TGI (KM12 colon)?
**A.** > 50 µM

**Q.** What about the GI50 (LOX IMVI melanoma) of the same compound?
**A.** 27.5 µM

**Q.** And the TGI (LOX IMVI melanoma)?
**A.** > 50 µM

**Q.** And the GI50 (SF-268 CNS)?
**A.** 44.1 µM

**Q.** What about the TGI (SF-268 CNS) of the same compound?
**A.** > 50 µM

**Q.** And the GI50 (SF-295 CNS)?
**A.** > 50 µM

**Q.** And the TGI (SF-295 CNS)?
**A.** > 50 µM

**Q.** And the GI50 (SNB-75 CNS)?
**A.** 7.71 µM

**Q.** And the TGI (SNB-75 CNS)?
**A.** > 50 µM

**Q.** What about the GI50 (UO-31 renal) of the same compound?
**A.** 40.1 µM

**Q.** And the TGI (UO-31 renal)?
**A.** > 50 µM

**Q.** For `NC(C(=O)[O-])C(=O)[O-].NC1CCCCC1N.[Pt+4]`, which GI50 (HOP-62 NSCLC) is on record?
**A.** 8.45 µM

**Q.** And the TGI (HOP-62 NSCLC)?
**A.** > 100 µM

**Q.** What about the GI50 (KM12 colon) of the same compound?
**A.** 12.5 µM

**Q.** What about the TGI (KM12 colon) of the same compound?
**A.** > 100 µM

**Q.** What about the GI50 (LOX IMVI melanoma) of the same compound?
**A.** 2.85 µM

**Q.** And the TGI (LOX IMVI melanoma)?
**A.** > 100 µM

**Q.** What about the GI50 (SF-268 CNS) of the same compound?
**A.** 0.188 µM

**Q.** And the TGI (SF-268 CNS)?
**A.** 6.71 µM

**Q.** What about the GI50 (SF-295 CNS) of the same compound?
**A.** 2.27 µM

**Q.** What about the TGI (SF-295 CNS) of the same compound?
**A.** 32.5 µM

**Q.** And the GI50 (SK-OV-3 ovarian)?
**A.** 13.2 µM

**Q.** And the TGI (SK-OV-3 ovarian)?
**A.** > 100 µM

**Q.** And the GI50 (SNB-75 CNS)?
**A.** > 100 µM

**Q.** What about the TGI (SNB-75 CNS) of the same compound?
**A.** > 100 µM

**Q.** And the GI50 (UO-31 renal)?
**A.** 52.7 µM

**Q.** And the TGI (UO-31 renal)?
**A.** > 100 µM
